Earlier results on one substance are cited in US20010003742A1, “Antilipemic formulation” (priority 1998, published 2001).

The conditions of the series: gelatine itself.

In the case of gelatine, the haemostatic effect entry is recorded as “only displays a haemostatic effect after an addition of thrombin”.
